Assay results taken from PubChem BioAssay (NCI).
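Cells were grown in 96-well plates and exposed to each compound for 48 hours at five concentrations; endpoints were interpolated linearly between bracketing concentrations, or set to the highest concentration if not reached. TGI marks complete inhibition of growth.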

Legend:
Assay in all cases: growth of human tumour cells (NCI), 48 h
KM12 colon = tested on: KM12 colon
SNB-19 CNS = tested on: SNB-19 CNS
HOP-62 NSCLC = tested on: HOP-62 NSCLC
UACC-257 melanoma = tested on: UACC-257 melanoma
HOP-92 NSCLC = tested on: HOP-92 NSCLC
RXF 393 renal = tested on: RXF 393 renal
OVCAR-5 ovarian = tested on: OVCAR-5 ovarian
SF-295 CNS = tested on: SF-295 CNS
HT29 colon = tested on: HT29 colon

| SMILES | TGI (KM12 colon) [µM] | TGI (SNB-19 CNS) [µM] | TGI (HOP-62 NSCLC) [µM] | TGI (UACC-257 melanoma) [µM] | TGI (HOP-92 NSCLC) [µM] | TGI (RXF 393 renal) [µM] | TGI (OVCAR-5 ovarian) [µM] | TGI (SF-295 CNS) [µM] | TGI (HT29 colon) [µM] |
| --- | --- | --- | --- | --- | --- | --- | --- | --- | --- |
| CC(=O)N=S(NC(=O)c1ccc(C)cc1)C(Cl)(Cl)Cl (centres undefined) | > 100 | > 100 | > 100 | > 100 | > 100 | > 100 | > 100 | > 100 | 60.6 |
| C/C(=C\CO)CC[C@@H]1[C@@]2(C)CCCC(C)(C)[C@@H]2CC[C@@]1(C)O | 43 | 42.9 | – | 38 | 32.4 | 35 | 49.3 | 33.7 | 51.2 |
| COc1cccc(Nc2nc3c([nH]2)c(=O)n(C)c(=O)n3C)c1 | > 10 | – | > 10 | > 10 | > 10 | > 10 | – | > 10 | > 10 |
| Nc1cc2nc(-c3ccccc3)cn2cn1 | > 100 | > 100 | > 100 | – | – | > 100 | > 100 | > 100 | > 100 |
| Cc1nc2ccccc2n1Cc1ccc(NC(=S)Nc2ccccc2)cc1 | > 100 | > 100 | > 100 | > 100 | > 100 | > 100 | > 100 | > 100 | > 100 |
| CO[C@H](C)[C@](O)(C(=O)OCC1=CCN2CC[C@@H](O)[C@H]12)C(C)C | > 100 | > 100 | > 100 | > 100 | > 100 | – | > 100 | > 100 | > 100 |
| COc1ccccc1Cn1c2c(c3cc(O)ccc31)C(=O)c1ccccc1C2=O | > 100 | > 100 | > 100 | > 100 | – | 14.3 | 34.1 | 42.2 | > 100 |
| CC(=O)OC1COC(N2c3ccccc3[C@@H]3CCc4c([nH]c5ccccc45)[C@@H]32)C(OC(C)=O)C1OC(C)=O (mixture of isomers) | > 100 | > 100 | > 100 | > 100 | > 100 | – | > 100 | > 100 | > 100 |
| Cc1ccc(S(=O)(=O)N2CCc3cc(O)c([N+](=O)[O-])cc32)cc1 | > 100 | > 100 | > 100 | > 100 | – | > 100 | – | > 100 | – |
| CCC(C)C(NC(=O)C(CCCC[N+](=N)N)NC(=O)C(CCCC[N+](=N)N)NC(=O)c1ccc(OC)cc1)C(=O)NC(CCCC[N+](=N)N)C(=O)N1CCCC1C(=O)NC(CCCCN)C(=O)NC(CC(C)C)C(N)=O (centres undefined) | > 100 | > 100 | > 100 | > 100 | – | > 100 | > 100 | > 100 | > 100 |
| CC1=NN(c2cccc(Cl)c2)C2(C1=Cc1ccc(N(C)C)cc1)C(Cl)C(=O)N2c1nc2ccccc2s1 (centres undefined) | 38.5 | – | > 100 | > 100 | 64.7 | 46 | > 100 | > 100 | > 100 |
| CC12CCC(=O)[C@@]1(C)CCCC2=O (some centres undefined) | > 100 | > 100 | > 100 | > 100 | – | > 100 | > 100 | > 100 | > 100 |
| C=C1C[C@@H]2CC[C@@]34CC5O[C@H]6C(O[C@H]7CC[C@H](CC(=O)O[C@@H]8[C@@H](C)[C@@H]9O[C@@H]%10C[C@]%11(C[C@@H]%12O[C@]%13(C[C@H](C)[C@@H]%14O[C@@H]%15CC(C(COC(C)=O)OC(C)=O)O[C@@H]%15C[C@@H]%14O%13)C[C@H](C)[C@@H]%12O%11)O[C@@H]%10C[C@@H]9O[C@H]8CC8O[C@@H](CC[C@@H]1O2)C[C@@H](C)C8(O)CO)O[C@@H]7[C@@H]6O3)[C@H]5O4 (some centres undefined) | > 0.792 | > 1 | > 1 | > 0.53 | > 1 | – | > 1 | > 1 | – |
| C[C@@H](CCO)OC1OC(COC(=O)C(C)(C)C)C(OC(=O)C(C)(C)C)C(OC(=O)C(C)(C)C)C1OC(=O)C(C)(C)C (some centres undefined) | – | > 100 | > 100 | > 100 | > 100 | 61 | > 100 | 76.7 | 35.7 |
| O/N=C/[C@H]1COC2(CCCCC2)O1 | > 100 | > 100 | > 100 | > 100 | > 100 | – | > 100 | > 100 | > 100 |
| C=CCN(c1cc(OC)c2[nH]c(C(=O)O)c(C)c2c1[N+](=O)[O-])S(C)(=O)=O | > 100 | > 100 | > 100 | > 100 | – | > 100 | > 100 | > 100 | – |
| CC1OC2OC3C(OCC(O)C3O)OC(=O)[C@]34CCC(C)(C)CC3C3=CCC5[C@@]6(C)C[C@H](O)[C@H](OC7OC(CO)C(O)C(O)C7OC7OC(COC(=O)CC(C)(O)CC(=O)OC1C(OC1OC(CO)C(O)C(O)C1O)C2O)C(O)C(O)C7O)[C@@](C)(CO)C6CC[C@@]5(C)[C@]3(C)CC4 (some centres undefined) | 8.24 | 16 | 3.13 | 4.24 | 4.31 | – | 5.7 | 3.72 | 3.35 |
| CCC1(c2ccc(OC)c(OC)c2)CCN2C(=O)C(O)CC21 (centres undefined) | > 100 | > 100 | > 100 | > 100 | – | > 100 | > 100 | > 100 | > 100 |
| CC1=CC(O)CC(C)(C)C1/C=C/C(C)=C/C=C/C(C)=C/C=C/C=C(C)/C=C/C=C(C)/C=C/C1=C(C)CC(O)CC1(C)C (centres undefined) | > 100 | > 100 | – | 59.1 | 41 | 33.2 | 78.4 | 58.4 | 30.3 |
| COc1ccc(CCn2ccc(=O)c(O)c2C)cc1OC | > 100 | > 100 | > 100 | 31 | 80.5 | – | > 100 | > 100 | 77.4 |
| Oc1ccc(C[C@@H]2CN[C@H](Cc3ccc(O)c(Br)c3)CN2)cc1 | > 100 | – | > 100 | > 100 | > 100 | > 100 | > 100 | > 100 | > 100 |
| CCOP(=O)(COCCn1nc(Br)c(=O)[nH]c1=O)OCC | > 100 | > 100 | > 100 | > 100 | > 100 | > 100 | > 100 | – | – |
| CCOC(=O)C(NC(=O)CC)(Nc1ccccc1F)C(F)(F)F (centres undefined) | > 100 | > 100 | – | > 100 | > 100 | > 100 | > 100 | > 100 | > 100 |
